{
  "source": "patent US20240285773A1",
  "about": "“METHODS OF TREATING MYELODYSPLASTIC SYNDROME AND MONITORING THE TREATMENT” (Geron Corporation, priority 2023, published 2024)",
  "origin": "cited, not measured here",
  "tested_on": "patients with del(5q) MDS",
  "settings": "cited from earlier work",
  "data": [
    {"compound": "Nc1cccc2c1CN(C1CCC(=O)NC1=O)C2=O", "note": "(stereo not shown) [lenalidomide, 3-(4-Amino-1-oxoisoindolin-2-yl)piperidine-2,6-dione]", "values": [
      {"measurement": "Transfusion independence, proportion of patients", "result": "two-thirds"}
    ]}
  ]
}
